Reference: patent US9795570B2, “Modulation of macrophage phenotype by emodin” (University of South Carolina, priority 2016, dated 2017)

Tests used:
EO771 cells = assay: Cell viability, LDH assay; type: cell-based, mouse; conditions: emodin 0-100 μM, 24-48 h
Method: (§1) Tumor cells (2×10^4 EO771 or 4T1 cells) were seeded into 96 well culture plates in DMEM with 10% FBS. The cells were incubated overnight at 37° C. The medium was then removed, and the cells were washed with phosphate-buffered saline (PBS). DMEM containing varying concentrations of emodin (0-100 μM) was then added to the cells in quadruplicate. Vehicle control contained an equal volume of DMSO. Plates of cells were then incubated for 24-48 h. After an indicated period, the viability of the cells was determined using a Lactate Dehydrogenase (LDH) Cytotoxicity Detection Kit (Clontech Mountain View, Calif.) according to the manufacturer's instructions. Briefly, the supernatant was removed from each well on the plate and placed in a new well on the same plate. An equal volume of cell lysis buffer (2% triton in DMEM) was then added to each well containing the cancer cells, and the cells were incubated at room temperature for 15 min. The reaction mixture was then added to each well (cell lysate plus supernatant) and incubated for 5 min before the stop solution was added. The absorbance was measured at 490 nm on a Spectra Max M5 Microplate Reader (Molecular Devices, Sunnyvale, Calif.). The percent viability was then calculated as the ratio of LDH in the cell lysate to the total amount of LDH in the lysate plus the supernatant. The viability of each group was compared to the control.

4T1 cells = assay: Cell viability, LDH assay; type: cell-based, mouse; conditions: emodin 0-100 μM, 24-48 h
Method: as §1

[1] = tested on: NFκB p65, STAT1, IRF5, STAT6, IRF4; assay: Nuclear translocation of transcription factors (western blotting of nuclear fractions); type: cell-based, mouse; conditions: emodin 50 μM 24 h
Method: Following stimulation with IL4 or LPS+IFNγ with or without emodin for varying periods, macrophages were lysed with cell signaling lysis buffer (Millipore) for whole cell lysates. Cytoplasmic and nuclear extracts were prepared using the Epiquik Nuclear Extraction kit (Epigentek, Farmingdale, N.Y.). Total protein was separated on 4-20% Tris-glycine pre-cast gels (Pierce) and transferred onto Nitrocellulose membranes (Bio-Rad Life Science, Hercules, Calif.). The membranes were then probed with HRP conjugated secondary antibodies, and signals were detected using Pierce ECL Western Blotting Substrate (Pierce).

[2] = tested on: mouse peritoneal macrophages; assay: Whole genome microarray, macrophages stimulated with IL4; type: cell-based
Method: (§2) Three milliliters of 4% Thioglycolate solution was injected intraperitoneally into 8-12 week old C57BL/6 mice. Three days later, macrophages were collected by lavaging the peritoneal cavity with PBS. The cells were then resuspended in DMEM containing 10% FBS. After 2 h, non-adherent cells were washed away with PBS and the macrophages were cultured overnight in serum free DMEM. The macrophages were then treated with DMEM containing IL4 (10 ng/ml, BioAbChem Inc. Ladson, S.C.) or LPS (100 ng/ml, Sigma-Aldrich) and IFNγ (20 ng/ml, BioAbChem Inc) with or without emodin. Emodin was purchased from Nanjing Langze Medicine and Technology Co. Ltd (Nanjing, China) and dissolved in DMSO at a concentration of 10 mg/ml as a stock solution.
Microarray analysis was carried out as described previously, with a few alterations. Macrophages were stimulated with IL4 for 6 h or LPS+IFNγ for 24 h with or without emodin (50 μM). Samples were prepared in biological replicates of 4. Cells were lysed with Qiazol and RNA was extracted using Qiagen's miRNeasy kit. Agilent's 2100 Bioanalyzer was used to determine the quality and quantity of the RNA. […] The RNA was amplified and labeled with Agilent's Low Input Quick Amp Labeling Kit (Agilent) according to the manufacturer's instructions. Labeled RNA was then purified using Qiagen's RNeasy Mini Kit (Qiagen, Valencia, Calif.) and dye incorporation and cRNA yield were assessed. Labeled samples were hybridized to Agilent Whole Mouse Genome Microarrays 8×60K (Agilent) using Agilent's Gene Expression Hybridization Kit (Agilent) according to the manufacturer's instructions. Microarray analysis was performed using an Agilent DNA Microarray Scanner System (Cat. # G2565CA).
For microarray analysis, data was extracted from images with Feature Extractor Software version 10.7.3.1 (Agilent); background correction using detrending algorithms was performed. Subsequently, background-corrected data was uploaded into GeneSpring GX version 11.5.1 for analysis. In this process, data was log 2 transformed, quantile normalized and baseline transformed using the median of all samples. […] Differentially expressed genes were determined by analysis of the data using the Mann-Whitney unpaired statistics. A cutoff p-value of 0.05 and a fold change cutoff value of 2.0 were used to filter the data. Pathway analysis was performed using Ingenuity Pathway Analysis software.

[3] = tested on: mouse peritoneal macrophages; assay: qPCR of macrophage activation genes; type: cell-based
Method: as §2
For qPCR, macrophages were lysed with Qiazol and RNA was extracted using Zymo research Direct-zol RNA isolation kit. cDNA was then made from 1 microgram of RNA using iScript cDNA Synthesis Kit (Bio-Rad Life Science). Run conditions were 95° C. for 10 s, 58° C. for 15 s, 70° C. for 15 s. Samples were run in duplicate on a Bio-rad CFX Real Time thermocycler.

Cc1cc(O)c2c(c1)C(=O)c1cc(O)cc(O)c1C2=O [emodin]
concentration from which a slight effect on cell viability starts (EO771 cells): ≥ 25 µM
concentration from which a slight effect on cell viability starts (4T1 cells): ≥ 25 µM
STAT6 nuclear translocation ([1]; IL4 stimulation): drastically inhibit
nuclear IRF4 ([1]; IL4 stimulation): inhibited
NFκB p65 nuclear translocation ([1]; LPS/IFNγ stimulation): drastically inhibit
STAT1 and IRF5 nuclear translocation ([1]; LPS/IFNγ stimulation): inhibited
fold reduction of IL4 induced expression ([2]; Arg1, microarray, emodin 50 μM): 7.69 fold
fold increase of expression under IL4 stimulation ([2]; CXCL2, microarray): 60.6 fold
fold increase of expression under IL4 stimulation ([2]; CXCL10, microarray): 15.5 fold
fold reduction of IL4 induced expression ([2]; Ch3I3, microarray, emodin 50 μM): 4.24 fold
fold reduction of IL4 induced expression ([2]; IRF4, microarray, emodin 50 μM): 97.43 fold
fold reduction of IL4 induced expression ([2]; Mrc1, microarray, emodin 50 μM): 2.29 fold
fold reduction of IL4 induced expression ([2]; SOCS1, microarray, emodin 50 μM): 22.9 fold
fold increase of expression under IL4 stimulation ([2]; TNFα, microarray): 2.7 fold
IL4 responsive genes whose induced changes were inhibited ([2]; emodin 50 μM, IL4 6 h): ~60%
Em + LPS vs. LPS/IFN (gene expression) ([2]; gene Arg1, microarray, emodin 50 μM): −7.69
Em + LPS vs. LPS/IFN (gene expression) ([2]; gene CCL7, microarray, emodin 50 μM): −4.16
Em + LPS vs. LPS/IFN (gene expression) ([2]; gene CCL11, microarray, emodin 50 μM): −11.31
Em + LPS vs. LPS/IFN (gene expression) ([2]; gene CCL12, microarray, emodin 50 μM): 2.30
Em + LPS vs. LPS/IFN (gene expression) ([2]; gene CCL28, microarray, emodin 50 μM): 2.27
Em + LPS vs. LPS/IFN (gene expression) ([2]; gene CDH1, microarray, emodin 50 μM): −5.72
Em + LPS vs. LPS/IFN (gene expression) ([2]; gene CDKN1A, microarray, emodin 50 μM): 29.78
Em + LPS vs. LPS/IFN (gene expression) ([2]; gene CISH, microarray, emodin 50 μM): −7.11
Em + LPS vs. LPS/IFN (gene expression) ([2]; gene CXCL2, microarray, emodin 50 μM): 60.63
Em + LPS vs. LPS/IFN (gene expression) ([2]; gene CXCL10, microarray, emodin 50 μM): 15.05
Em + LPS vs. LPS/IFN (gene expression) ([2]; gene CXCR1, microarray, emodin 50 μM): 12.40
Em + LPS vs. LPS/IFN (gene expression) ([2]; gene Ccl2, microarray, emodin 50 μM): −4.26
Em + LPS vs. LPS/IFN (gene expression) ([2]; gene Chi3I3, microarray, emodin 50 μM): −4.24
Em + LPS vs. LPS/IFN (gene expression) ([2]; gene FCGR2B, microarray, emodin 50 μM): −2.15
Em + LPS vs. LPS/IFN (gene expression) ([2]; gene FLT1, microarray, emodin 50 μM): −27.09
Em + LPS vs. LPS/IFN (gene expression) ([2]; gene IL1R1, microarray, emodin 50 μM): −2.15
Em + LPS vs. LPS/IFN (gene expression) ([2]; gene IL6, microarray, emodin 50 μM): −5.30
Em + LPS vs. LPS/IFN (gene expression) ([2]; gene IL19, microarray, emodin 50 μM): −20.01
Em + LPS vs. LPS/IFN (gene expression) ([2]; gene IRF4, microarray, emodin 50 μM): −97.43
Em + LPS vs. LPS/IFN (gene expression) ([2]; gene IRF5, microarray, emodin 50 μM): −2.58
Em + LPS vs. LPS/IFN (gene expression) ([2]; gene ITGB8, microarray, emodin 50 μM): −4.32
Em + LPS vs. LPS/IFN (gene expression) ([2]; gene MMP13, microarray, emodin 50 μM): 3.68
Em + LPS vs. LPS/IFN (gene expression) ([2]; gene Mrc1, microarray, emodin 50 μM): −2.29
Em + LPS vs. LPS/IFN (gene expression) ([2]; gene PLA2G5, microarray, emodin 50 μM): 4.26
Em + LPS vs. LPS/IFN (gene expression) ([2]; gene PTGS2, microarray, emodin 50 μM): 2.56
Em + LPS vs. LPS/IFN (gene expression) ([2]; gene RBP4, microarray, emodin 50 μM): −15.56
Em + LPS vs. LPS/IFN (gene expression) ([2]; gene SOCS1, microarray, emodin 50 μM): −22.90
Em + LPS vs. LPS/IFN (gene expression) ([2]; gene SOCS2, microarray, emodin 50 μM): −5.47
Em + LPS vs. LPS/IFN (gene expression) ([2]; gene TNF, microarray, emodin 50 μM): 2.69
expression of CDKN1A (p21) ([2]; microarray): increased the expression
expression of M2 genes YM1 and Mrc1 in IL4-stimulated cells ([2]; microarray): reducing them
expression of polarization markers iNOS, Arg1 and YM1 in naïve macrophages ([3]; emodin 25 or 50 μM, 24 h): no effects
expression of M1 genes TNFα, CXCL2 and CXCL10, and M2 gene Mrc1 ([3]; qPCR, LPS/IFNγ vs IL4 settings): inversely regulated
expression of M2 genes Arg1 and Chi3I3 ([3]; qPCR, under IL4 stimulation): inhibited
expression of receptors TLR4 and CSFr1 ([3]; qPCR, under LPS/IFNγ or IL4 stimulation, respectively): inhibited the expression
expression of IL1β, iNOS, IL6, MMP2 and 9 ([3]; qPCR, under LPS/IFNγ stimulation): inhibited the expression
expression of IRF5, SOCS1 and CCL2 ([3]; qPCR, under both IL4 and LPS stimulation): inhibited the expression
